Test results published in ChEMBL document CHEMBL5385889, “Design, synthesis and biological evaluations of quinolone amides against African trypanosomiasis with improved solubility” (Eur J Med Chem, 2023).
Converted amounts (≈) assume the structure as drawn.

Legend:
[1] = Selectivity index, ratio of CC50 for cytotoxicity against mouse J774.1 cells assessed as reduction in cell viability to IC50 for antitrypanosomal activity against wild type Trypanosoma brucei M1.2 Lister 427 trypomastigotes form assessed as parasite growth inhibition; type: toxicity, cell-based; settings: read-out: Ratio CC50/IC50
[2] = test system: Trypanosoma brucei; experiment: Antitrypanosomal activity against wild type Trypanosoma brucei M1.2 Lister 427 trypomastigotes form assessed as parasite growth inhibition incubated for 48 hrs; type: functional, organism-based; settings: M1.2 Lister 427, 48 h
[3] = test system: J774.1; experiment: Cytotoxicity against mouse J774.1 cells assessed as reduction in cell viability incubated for 24 hrs by alamar blue staining based analysis; type: functional
[4] = Octanol/water partition coefficient, log P of the compound by LC-MS analysis; type: physicochemical
[5] = Thermodynamic aqueous solubility of compound in PBS buffer at pH 7.4 at 37 degreeC measured after 24 hrs by HPLC analysis; type: physicochemical; settings: read-out: Therm_solubility

Row | Structure (SMILES) | selectivity ratio [1] | IC50 [2] | CC50 [3] | logP [4] | logP ([4]; read-out: logP) | solubility thermodynamic at 24 h [5]
1 | CCCCn1cc(C(=O)NCc2ccccc2)c(=O)c2cc(F)c(N3CCOCC3)cc21 | 1210 | 0.047 µM | 57 µM | 4.1 | – | –
2 | CCCCn1cc(C(=O)NCc2ccccc2)c(=O)c2ccc(N3CCOCC3)cc21 | > 435 | 0.23 µM | > 100 µM | – | – | –
3 | CCCCn1cc(C(=O)NCc2ccccc2)c(=O)c2c(F)cc(N3CCOCC3)cc21 | > 2000 | 0.05 µM | > 100 µM | – | 3.38 | –
4 | CCCCn1cc(C(=O)NCc2ccc(CN)cc2)c(=O)c2cc(F)c(N3CCOCC3)cc21 | 164 | 0.3 µM | 49.2 µM | – | 3.8 | > 1000 µg/mL
5 | CCCCn1cc(C(=O)NC2(c3ccccc3)CCOCC2)c(=O)c2ccc(N3CCOCC3)cc21 | – | > 20 µM | > 50 µM | – | 3.6 | 1.03 µg/mL (≈ 2.1 µM)
6 | CCCCn1cc(C(=O)NCc2ccccc2)c(=O)c2ccc(NCCOCCOCCOC)cc21 | > 43 | 1.15 µM | > 50 µM | – | 3.38 | 41 µg/mL (≈ 82.7 µM)
7 | CCCCn1cc(C(=O)NCc2ccccc2)c(=O)c2cc(F)c(N3CCOCC3)c(Cl)c21 | > 278 | 0.18 µM | > 50 µM | – | 5.01 | < 0.1 µg/mL
8 | CCCCn1cc(C(=O)NC2(c3ccccc3)CCCCC2)c(=O)c2cc(F)c(N3CCOCC3)cc21 | 7 | 4.72 µM | 31 µM | – | 5.64 | < 0.1 µg/mL
9 | CCCCn1cc(C(=O)NC2(c3ccccc3)CC2)c(=O)c2cc(F)c(N3CCOCC3)c(F)c21 | > 333 | 0.06 µM | > 20 µM | – | 4.57 | 0.23 µg/mL (≈ 0.478 µM)
10 | CCCCn1cc(C(=O)NC2(c3ccccc3)CCCCC2)c(=O)c2ccc(N3CCOCC3)cc21 | 9 | 4.18 µM | 37 µM | – | 4.94 | < 0.1 µg/mL
11 | CCCCn1cc(C(=O)NC2(c3ccccc3)CCS(=O)(=O)CC2)c(=O)c2ccc(N3CCOCC3)cc21 | – | > 20 µM | > 50 µM | – | 2.83 | 3.35 µg/mL (≈ 6.23 µM)
12 | CCCCn1cc(C(=O)NCc2ccccc2)c(=O)c2cc(OCC)c(N3CCOCC3)c(OCC)c21 | 17 | 1.93 µM | 33.2 µM | – | 5.51 | < 0.1 µg/mL
13 | CCCCn1cc(C(=O)NCc2cccc(C#N)c2)c(=O)c2c(F)cc(N3CCOCC3)cc21 | > 2270 | 0.022 µM | > 50 µM | – | 2.98 | 0.24 µg/mL (≈ 0.519 µM)
14 | CCCCn1cc(C(=O)NCc2ccc(CN)cc2)c(=O)c2c(F)cc(N3CCOCC3)cc21 | > 200 | 0.25 µM | > 50 µM | – | 2.72 | > 1000 µg/mL
15 | CCCCn1cc(C(=O)NC2(c3ccccc3)CCCCC2)c(=O)c2c(F)cc(N3CCOCC3)cc21 | > 12 | 4.22 µM | > 50 µM | – | 4.97 | < 0.1 µg/mL
16 | CCCCn1cc(C(=O)NCc2ccc(CN)cc2)c(=O)c2ccc(N3CCOCC3)cc21 | > 32 | 1.55 µM | > 50 µM | – | 3.24 | > 1000 µg/mL
17 | CCCCn1cc(C(=O)NCc2ccccc2)c(=O)c2ccc(N3CCC(OCCOCCOCCOC)CC3)cc21 | 48 | 1.01 µM | 48.5 µM | – | 4.05 | 86.9 µg/mL (≈ 150 µM)

Row | Structure (SMILES) | selectivity ratio [1] | IC50 [2] | CC50 [3] | logP [4] | logP ([4]; read-out: logP) | solubility thermodynamic at 24 h [5]
18 | O=C(NCc1ccccc1)c1cn(CC2CCC2)c2cc(N3CCOCC3)ccc2c1=O | 37 | 0.8 µM | 29.9 µM | – | 3.68 | 1.66 µg/mL (≈ 3.85 µM)
19 | CCCCn1cc(C(=O)NC2(c3ccccc3)CCCC2)c(=O)c2cc(F)c(N3CCOCC3)cc21 | 26 | 1.83 µM | 47.4 µM | – | 5.24 | < 0.1 µg/mL
20 | CCCCn1cc(C(=O)NC2(c3ccccc3)CC2)c(=O)c2ccc(N3CCOCC3)cc21 | > 69 | 0.72 µM | > 50 µM | – | 3.76 | < 0.1 µg/mL
21 | CCCCn1cc(C(=O)NCc2ccc(C#N)cc2)c(=O)c2c(F)cc(N3CCOCC3)cc21 | > 500 | 0.1 µM | > 50 µM | – | 2.9 | 0.88 µg/mL (≈ 1.9 µM)
22 | CCCCn1cc(C(=O)NCc2ccccc2)c(=O)c2cc(F)c(N3CCOCC3)c(Br)c21 | > 106 | 0.47 µM | > 50 µM | – | 5.05 | < 0.1 µg/mL
23 | CCCCn1cc(C(=O)NC23CC(C2)C3)c(=O)c2ccc(N3CCOCC3)cc21 | > 13 | 3.72 µM | > 50 µM | – | 3.74 | 3.02 µg/mL (≈ 7.64 µM)
24 | CCCCn1cc(C(=O)NC2(c3ccccc3)CC2)c(=O)c2c(F)cc(N3CCOCC3)cc21 | > 278 | 0.18 µM | > 50 µM | – | 3.54 | < 0.1 µg/mL
25 | CCCCn1cc(C(=O)NCc2cccc(CN)c2)c(=O)c2ccc(N3CCOCC3)cc21 | > 46 | 1.08 µM | > 50 µM | – | 3.31 | > 1000 µg/mL
26 | O=C(NCc1ccccc1)c1cn(CC2CC2)c2cc(N3CCOCC3)ccc2c1=O | > 91 | 0.55 µM | > 50 µM | – | 3.24 | 5.81 µg/mL (≈ 13.9 µM)
27 | CCCCn1cc(C(=O)NC2(c3ccccc3)CC2)c(=O)c2cc(F)c(N3CCOCC3)cc21 | > 333 | 0.15 µM | > 50 µM | – | 4.46 | < 0.1 µg/mL
28 | O=C(NCc1ccccc1)c1cn(C23CC(C2)C3)c2cc(N3CCOCC3)ccc2c1=O | 373 | 0.13 µM | 48.4 µM | – | 4.57 | 4.06 µg/mL (≈ 9.45 µM)
29 | O=C(NCc1ccccc1)c1cn(CC2CCCCC2)c2cc(N3CCOCC3)ccc2c1=O | > 58 | 0.86 µM | > 50 µM | – | 4.59 | < 0.1 µg/mL
30 | CCCCn1cc(C(=O)NCc2ccccc2)c(=O)c2ccc(OCCOCCOCCOC)cc21 | > 45 | 1.12 µM | > 50 µM | – | 3.57 | 93 µg/mL (≈ 187 µM)
31 | CCCCn1cc(C(=O)NCc2ccccc2)c(=O)c2ccc(N3CCCN(C)CC3)cc21 | 5 | 2.97 µM | 14.2 µM | – | 4.51 | 20.9 µg/mL (≈ 46.8 µM)
32 | CCCCn1cc(C(=O)NCc2cccc(CN)c2)c(=O)c2cc(F)c(N3CCOCC3)cc21 | 80 | 0.52 µM | 41.8 µM | – | 3.83 | > 1000 µg/mL
33 | CCCCN1CC(C)(C(=O)NCc2ccccc2)C(=O)c2ccc(N3CCOCC3)cc21 (centres undefined) | > 13 | 3.74 µM | > 50 µM | – | 3.04 | 10.4 µg/mL (≈ 23.9 µM)
34 | CCCCn1cc(C(=O)NC2(c3ccccc3)CCCC2)c(=O)c2ccc(N3CCOCC3)cc21 | 8 | 4.4 µM | 34.1 µM | – | 4.57 | < 0.1 µg/mL
